This note sets out measurements from patent US11472788B2, “Benzoimidazoles as selective inhibitors of indoleamine 2,3-dioxygenases” (BEIGENE, LTD., priority 2017, dated 2022).

One may read the IC50 as the midpoint of a concentration-inhibition curve. What is called EC50 is the midpoint of the concentration-response curve. Higher therefore signals weaker potency.

One test concerns the target Recombinant IDO1 (Homo sapiens (Human), UniProt P14902). Briefly: IDO1 enzymatic assay. It counts as biochemical. Particulars: 50 nM IDO1, 1.3 mM D-tryptophan, pH 7.5, read-out: Enzyme assay IC50. Here is the method: Recombinant IDO1 was overexpressed and purified from E. coli cells with an N-terminal His tag. IDO1 enzymatic assay was carried out using a methodology similar to described in the literature (J. Biol. Chem. (1980), 255, 1339-1345). The reaction mixture contains 50 nM IDO1, 1.3 mM D-tryptophan, 5 mM L-ascorbic acid, […] methylene Blue, 0.4 mg/mL catalase and compound (or DMSO) in a buffer containing 50 mM potassium phosphate pH 7.5 and 0.1% BSA. After incubation at 24° C. for 1.5 hours, absorbance of the reaction mixture was continuously read at 321 nm to monitor the formation of N′-formylkynurenine by a FULOstar OMEGA plate reader (BMG LABTECH) for 1 hour. The enzymatic activity was determined by measuring the slope of the linear absorbance increase as a function of time. The IC50s are calculated based on remaining enzyme activity in the presence of increasing concentrations of compounds.

Test [1] addresses cellular IDO1 in HeLa cells (Homo sapiens (Human), UniProt P14902). Briefly: HeLa Cell-Based IDO1 Kyn (Kynurenine) Production Assay. Particulars: IFN-γ induced IDO1, 48 hours incubation, Kyn absorbance at 480 nm. Put shortly:
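Compounds added to HeLa cells together with IFN-γ (100 ng/mL final) and 0.4 mM L-Trp, 48 h at 37 °C. Kynurenine in TCA-deproteinized supernatant measured colorimetrically with 4-(dimethylamino)benzaldehyde at 480 nm; IC50 from four-parameter logistic fit.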

Chain of Recombinant IDO1 (P14902 whole entry, species assumed): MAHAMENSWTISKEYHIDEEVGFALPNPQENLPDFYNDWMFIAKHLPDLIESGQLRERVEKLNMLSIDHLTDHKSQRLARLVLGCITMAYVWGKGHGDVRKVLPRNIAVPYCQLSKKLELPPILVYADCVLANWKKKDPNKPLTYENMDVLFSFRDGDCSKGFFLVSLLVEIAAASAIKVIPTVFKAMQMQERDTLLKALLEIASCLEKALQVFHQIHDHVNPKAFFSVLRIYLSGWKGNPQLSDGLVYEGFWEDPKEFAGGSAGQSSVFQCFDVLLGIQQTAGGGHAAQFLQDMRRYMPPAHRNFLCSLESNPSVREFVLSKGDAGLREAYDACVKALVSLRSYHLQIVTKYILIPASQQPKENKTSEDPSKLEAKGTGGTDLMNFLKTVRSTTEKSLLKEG
Chain of cellular IDO1 in HeLa cells (P14902 whole entry): as the sequence (P14902 whole entry, species assumed) above

For the compound `Fc1cc2nc(C[C@H]3CC[C@H](c4ccccc4)CC3)[nH]c2cc1Br` [Example A37a, 6-bromo-5-fluoro-2-(((1r,4r)-4-phenylcyclohexyl)methyl)-1H-benzo[d]imidazole], the IC50 at Recombinant IDO1 was more than 10 µM. This compound also came in with an EC50 in test [1] of 223 nM.
As for `Fc1cc2nc(C[C@H]3CC[C@@H](c4ccccc4)CC3)[nH]c2cc1Br` [Example A37b, 6-bromo-5-fluoro-2-(((1s,4s)-4-phenylcyclohexyl)methyl)-1H-benzo[d]imidazole], on Recombinant IDO1, the IC50 is 6.9 µM. Besides, the midpoint of the response in test [1], the EC50, lay at 99 nM.
In the same order, the values of `Fc1ccc2nccc(C3CCN(CCc4nc5cc(Cl)ccc5[nH]4)CC3)c2c1` [Example A38, 4-(1-(2-(5-chloro-1H-benzo[d]imidazol-2-yl)ethyl)piperidin-4-yl)-6-fluoroquinoline] are more than 10 µM and 143 nM.
The corresponding values for `Clc1ccc2[nH]c(CC3CCN(c4ccnc5ccccc45)CC3)nc2c1` [Example A40, 4-(4-((5-chloro-1H-benzo[d]imidazol-2-yl)methyl)piperidin-1-yl)quinoline] are more than 10 µM and 852 nM.
The corresponding values for `Fc1ccc2nccc(N3CCC(Cc4nc5cc(Cl)ccc5[nH]4)CC3)c2c1` [Example A41, 4-(4-((5-chloro-1H-benzo[d]imidazol-2-yl)methyl)piperidin-1-yl)-6-fluoroquinoline] are more than 10 µM and 481 nM.
